# Data: ChEMBL document CHEMBL1201862, “PubChem BioAssay data set” (2004)
#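 Where inhibition never reached the appropriate level, the endpoint shown equals the highest concentration tested. Otherwise, values were interpolated linearly from a five-concentration, 48-hour dose response in 96-well plates. GI50 = concentration required for 50% inhibition of growth.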 Active and inactive are the calls of the source. Cut-off read from the data, not from the text of the source: active = GI50 up to about 1.1 µM and inactive = higher.
# How the values were obtained:
# Assay in all cases: NCI tumour cell line growth inhibition, 48 h
# [1] = test system: 786-0
# [2] = test system: A498
# [3] = test system: A549
# [4] = test system: ACHN
# [5] = test system: BT-549
# [6] = test system: CAKI-1
# [7] = test system: CCRF-CEM
# [8] = test system: COLO 205
# [9] = test system: DU-145
# [10] = test system: EKVX
# [11] = test system: HCC 2998
# [12] = test system: HCT-116
# [13] = test system: HCT-15
# [14] = test system: HL-60
# [15] = test system: HOP-62
# [16] = test system: HOP-92
# [17] = test system: HT-29
# [18] = test system: Hs-578T
# [19] = test system: IGROV-1
# [20] = test system: K562
# [21] = test system: KM12
# [22] = test system: LOX IMVI
# [23] = test system: M14
# [24] = test system: MCF7
# [25] = test system: MDA-MB-231
# [26] = test system: MDA-MB-435
# [27] = test system: MDA-N
# [28] = test system: MOLT-4
# [29] = test system: Malme-3M
# [30] = test system: NCI-H226
# [31] = test system: NCI-H23
# [32] = test system: NCI-H460
# [33] = test system: NCI-H522
# [34] = test system: NCI/ADR-RES
# [35] = test system: OVCAR-3
# [36] = test system: OVCAR-4
# [37] = test system: OVCAR-5
# [38] = test system: OVCAR-8
# [39] = test system: PC-3
# [40] = test system: RPMI-8226
# [41] = test system: RXF 393
# [42] = test system: SF-268
# [43] = test system: SF-295
# [44] = test system: SF-539
# [45] = test system: SK-MEL-28
# [46] = test system: SK-MEL-2
# [47] = test system: SK-MEL-5
# [48] = test system: SK-OV-3
# [49] = test system: SN12C
# [50] = test system: SNB-19
# [51] = test system: SNB-75
# [52] = test system: SR
# [53] = test system: SW-620
# [54] = test system: T47D
# [55] = test system: TK-10
# [56] = test system: U-251
# [57] = test system: UACC-257
# [58] = test system: UACC-62
# [59] = test system: UO-31
structure (smiles),measurement,setting,value
COC(=O)C(Cc1ccccc1)NC(=O)c1ccc(CNC(=S)NCc2cccc(CNC(=S)NCc3ccccc3)c2)cc1 (configuration not stated),GI50,[1],> 34.6 µM (inactive)
same,GI50,[2],> 62.5 µM (inactive)
same,GI50,[3],> 34.5 µM (inactive)
same,GI50,[4],> 34.5 µM (inactive)
same,GI50,[5],> 33.9 µM (inactive)
same,GI50,[6],> 36.4 µM (inactive)
same,GI50,[7],> 34 µM (inactive)
same,GI50,[8],> 32.1 µM (inactive)
same,GI50,[9],> 35.9 µM (inactive)
same,GI50,[10],> 32.2 µM (inactive)
same,GI50,[11],> 35 µM (inactive)
same,GI50,[12],> 34 µM (inactive)
same,GI50,[13],> 35.2 µM
same,GI50,[14],> 62.5 µM (inactive)
same,GI50,[15],28.9 µM (inactive)
same,GI50,[16],> 32 µM (inactive)
same,GI50,[17],> 33.7 µM (inactive)
same,GI50,[18],> 29.9 µM (inactive)
same,GI50,[19],> 31.7 µM (inactive)
same,GI50,[20],> 32.8 µM (inactive)
same,GI50,[21],> 29 µM (inactive)
same,GI50,[22],> 35.6 µM (inactive)
same,GI50,[23],> 36 µM (inactive)
same,GI50,[24],> 32.8 µM (inactive)
same,GI50,[25],> 34 µM (inactive)
same,GI50,[26],> 34.2 µM (inactive)
same,GI50,[27],> 32.5 µM (inactive)
same,GI50,[28],> 34 µM (inactive)
same,GI50,[29],> 34.9 µM (inactive)
same,GI50,[30],> 34.1 µM (inactive)
same,GI50,[31],> 35.4 µM (inactive)
same,GI50,[32],> 36.5 µM (inactive)
same,GI50,[33],> 32.5 µM (inactive)
same,GI50,[34],> 32.7 µM (inactive)
same,GI50,[35],27.9 µM (inactive)
same,GI50,[36],> 32.1 µM (inactive)
same,GI50,[37],> 34.3 µM (inactive)
same,GI50,[38],> 31.7 µM (inactive)
same,GI50,[39],> 32 µM (inactive)
same,GI50,[40],> 29.1 µM (inactive)
same,GI50,[41],20 µM (inactive)
same,GI50,[42],18.3 µM (inactive)
same,GI50,[43],> 33.4 µM (inactive)
same,GI50,[44],> 62.5 µM (inactive)
same,GI50,[45],> 34 µM (inactive)
same,GI50,[46],> 33.3 µM (inactive)
same,GI50,[47],> 32.6 µM (inactive)
same,GI50,[48],> 33.9 µM (inactive)
same,GI50,[49],> 31.8 µM (inactive)
same,GI50,[50],> 33.3 µM (inactive)
same,GI50,[51],13.4 µM (inactive)
same,GI50,[52],> 34.6 µM (inactive)
same,GI50,[53],> 32.9 µM (inactive)
same,GI50,[54],> 33.7 µM (inactive)
same,GI50,[55],> 35.8 µM (inactive)
same,GI50,[56],> 33.5 µM (inactive)
same,GI50,[57],> 35.8 µM (inactive)
same,GI50,[58],> 34.6 µM (inactive)
same,GI50,[59],> 35.2 µM (inactive)
Cn1c2ccccc2c2ccc3c(c21)C(=O)c1ccc2c4ccccc4n(C)c2c1C3=O,GI50,[1],99.1 µM (inactive)
same,GI50,[2],> 100 µM (inactive)
same,GI50,[3],> 100 µM (inactive)
same,GI50,[4],> 100 µM (inactive)
same,GI50,[5],> 100 µM (inactive)
same,GI50,[6],> 100 µM (inactive)
same,GI50,[7],> 100 µM (inactive)
same,GI50,[8],> 100 µM (inactive)
same,GI50,[9],> 100 µM (inactive)
same,GI50,[10],> 100 µM (inactive)
same,GI50,[11],> 100 µM (inactive)
same,GI50,[12],> 96.2 µM (inactive)
same,GI50,[13],> 100 µM
same,GI50,[14],> 100 µM (inactive)
same,GI50,[15],> 100 µM (inactive)
same,GI50,[16],> 100 µM (inactive)
same,GI50,[17],> 100 µM (inactive)
same,GI50,[18],> 100 µM (inactive)
same,GI50,[19],> 100 µM (inactive)
same,GI50,[20],> 100 µM (inactive)
same,GI50,[21],> 100 µM (inactive)
same,GI50,[22],> 100 µM (inactive)
same,GI50,[23],> 100 µM (inactive)
same,GI50,[24],97.1 µM (inactive)
same,GI50,[25],> 100 µM (inactive)
same,GI50,[26],> 100 µM (inactive)
same,GI50,[27],> 100 µM (inactive)
same,GI50,[28],> 100 µM (inactive)
same,GI50,[29],87.5 µM (inactive)
same,GI50,[30],> 100 µM (inactive)
same,GI50,[31],> 100 µM (inactive)
same,GI50,[32],> 100 µM (inactive)
same,GI50,[33],> 100 µM (inactive)
same,GI50,[34],> 100 µM (inactive)
same,GI50,[35],> 65 µM (inactive)
same,GI50,[36],> 65.5 µM (inactive)
same,GI50,[37],> 100 µM (inactive)
same,GI50,[38],> 100 µM (inactive)
same,GI50,[39],> 100 µM (inactive)
same,GI50,[40],> 100 µM (inactive)
same,GI50,[41],> 100 µM (inactive)
same,GI50,[42],> 100 µM (inactive)
same,GI50,[43],> 100 µM (inactive)
same,GI50,[44],> 100 µM (inactive)
same,GI50,[45],> 100 µM (inactive)
same,GI50,[46],> 100 µM (inactive)
same,GI50,[47],> 100 µM (inactive)
same,GI50,[48],> 100 µM (inactive)
same,GI50,[49],> 100 µM (inactive)
same,GI50,[50],> 100 µM (inactive)
same,GI50,[51],> 100 µM (inactive)
same,GI50,[52],> 100 µM (inactive)
same,GI50,[53],> 100 µM (inactive)
same,GI50,[54],> 100 µM (inactive)
same,GI50,[55],> 100 µM (inactive)
same,GI50,[56],> 100 µM (inactive)
same,GI50,[57],> 100 µM (inactive)
same,GI50,[58],> 100 µM (inactive)
same,GI50,[59],> 100 µM (inactive)
CC1(C)CCC(=O)NC1CC(=O)CC1NC(=O)CCC1(C)C (configuration not stated),GI50,[1],> 100 µM (inactive)
same,GI50,[2],> 100 µM (inactive)
same,GI50,[3],> 100 µM (inactive)
same,GI50,[4],> 100 µM (inactive)
same,GI50,[5],> 100 µM (inactive)
same,GI50,[6],> 100 µM (inactive)
same,GI50,[7],> 100 µM (inactive)
same,GI50,[8],> 100 µM (inactive)
same,GI50,[9],> 100 µM (inactive)
same,GI50,[10],> 100 µM (inactive)
same,GI50,[11],> 100 µM (inactive)
same,GI50,[12],> 100 µM (inactive)
same,GI50,[13],> 100 µM
same,GI50,[14],32.7 µM (inactive)
same,GI50,[15],> 100 µM (inactive)
same,GI50,[16],> 100 µM (inactive)
same,GI50,[17],> 100 µM (inactive)
same,GI50,[18],> 100 µM (inactive)
same,GI50,[19],> 100 µM (inactive)
same,GI50,[20],> 100 µM (inactive)
same,GI50,[21],> 100 µM (inactive)
same,GI50,[22],> 100 µM (inactive)
same,GI50,[23],> 100 µM (inactive)
same,GI50,[24],> 100 µM (inactive)
same,GI50,[25],> 100 µM (inactive)
same,GI50,[26],> 100 µM (inactive)
same,GI50,[27],> 100 µM (inactive)
same,GI50,[28],> 100 µM (inactive)
same,GI50,[29],> 100 µM (inactive)
same,GI50,[30],> 100 µM (inactive)
same,GI50,[31],> 100 µM (inactive)
same,GI50,[32],> 100 µM (inactive)
same,GI50,[33],> 100 µM (inactive)
same,GI50,[34],> 100 µM (inactive)
same,GI50,[35],> 100 µM (inactive)
same,GI50,[36],> 100 µM (inactive)
same,GI50,[37],> 100 µM (inactive)
same,GI50,[38],> 100 µM (inactive)
same,GI50,[39],> 100 µM (inactive)
same,GI50,[40],> 100 µM (inactive)
same,GI50,[41],> 100 µM (inactive)
same,GI50,[42],> 100 µM (inactive)
same,GI50,[43],> 100 µM (inactive)
same,GI50,[44],> 100 µM (inactive)
same,GI50,[45],> 100 µM (inactive)
same,GI50,[46],> 100 µM (inactive)
same,GI50,[47],> 100 µM (inactive)
same,GI50,[48],> 100 µM (inactive)
same,GI50,[49],> 100 µM (inactive)
same,GI50,[50],> 100 µM (inactive)
same,GI50,[51],> 100 µM (inactive)
same,GI50,[52],7.08 µM (inactive)
same,GI50,[53],> 100 µM (inactive)
same,GI50,[54],> 100 µM (inactive)
same,GI50,[55],> 100 µM (inactive)
same,GI50,[56],> 100 µM (inactive)
same,GI50,[57],> 100 µM (inactive)
same,GI50,[58],> 100 µM (inactive)
same,GI50,[59],> 100 µM (inactive)
